Legend:
[1] = molecular target: T1, NAGK-SmBiT in complex with PII-LgBiT (ligand on NAGK) (Synechocystis sp. PCC 6803, UniProt P73326); assay: NanoBiT luminescence, Arg titration of PII-NAGK complex; type: binding; conditions: 2 mM ATP or 1 mM ATP/1 mM ADP; allosteric; pH 7.6, 2 mM MgCl2, 30 °C
T1 construct: gene argB; hexameric NAGK with N-terminal His6, C-terminal 16-aa linker and SmBiT; PII trimer with C-terminal Strep-tag and LgBiT; both from E. coli Lemo21; with Nitrogen regulatory protein P-II
T1 sequence (P73326 whole entry): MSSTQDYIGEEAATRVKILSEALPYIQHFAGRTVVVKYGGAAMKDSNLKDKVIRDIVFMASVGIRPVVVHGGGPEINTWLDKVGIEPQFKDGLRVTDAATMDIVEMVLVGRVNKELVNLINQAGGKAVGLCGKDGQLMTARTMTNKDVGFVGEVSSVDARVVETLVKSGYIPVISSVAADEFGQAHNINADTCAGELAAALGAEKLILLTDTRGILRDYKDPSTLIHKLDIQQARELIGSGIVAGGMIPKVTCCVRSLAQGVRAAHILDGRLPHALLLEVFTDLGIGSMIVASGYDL
T1 sequence (Q55247 whole entry partner): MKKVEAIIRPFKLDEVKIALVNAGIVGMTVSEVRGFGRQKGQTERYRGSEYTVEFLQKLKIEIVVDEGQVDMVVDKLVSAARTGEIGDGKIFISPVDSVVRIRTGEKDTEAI

[2] = molecular target: T1, NAGK-SmBiT in complex with PII-LgBiT (ligand on NAGK); assay: NanoBiT luminescence, stimulation of PII-NAGK complex formation; type: binding; conditions: 0-50 mM NAG, 2 mM ATP; 10 pM PII-LgBiT, 5 nM NAGK-SmBiT; pH 7.6, 2 mM MgCl2, 30 °C

SMILES	NanoBiT luminescence, Arg titration of PII-NAGK complex [1]	NanoBiT luminescence, stimulation of PII-NAGK complex formation [2]
N=C(N)NCCC[C@H](N)C(=O)O [Arg]	arginine was titrated to PII-LgBiT-NAGK-SmBiT complexes and luminescence was recorded	–
CC(=O)N[C@@H](CCC(=O)O)C(=O)O [NAG]	–	increasing NAG concentrations caused a dramatic increase in PII-NAGK interaction

Source: PMC8206089, “Split NanoLuc technology allows quantitation of interactions between PII protein and its receptors with unprecedented sensitivity and reveals transient interactions” (Scientific Reports, 2021)
